According to patent US20260001871A1, “TRIAZOLE DERIVATIVES AS MODULATORS OF MAS-RELATED G-PROTEIN RECEPTOR D” (ESCIENT PHARMACEUTICALS, INC., priority 2022, published 2026):

Target: human MRGPRD (Homo sapiens, UniProt Q8TDS7)
Test: MRGPRD antagonist activity, IP-One HTRF assay in CHO cells stably expressing human MRGPRD (versus 100 μM β-Alanine agonist)
Format: cell-based
How it was run: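 IP-1 HTRF read-out, with IC50 from HTRF ratio curves and percent antagonism relative to maximal efficacy (mean, SEM). Antagonists and agonist were co-incubated 1 h at 37 °C plus 1 h at room temperature on overnight-plated MRGPRD-CHO cells in LiCl-containing Tris buffer, pH 8.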

Chain of human MRGPRD (Q8TDS7 whole entry): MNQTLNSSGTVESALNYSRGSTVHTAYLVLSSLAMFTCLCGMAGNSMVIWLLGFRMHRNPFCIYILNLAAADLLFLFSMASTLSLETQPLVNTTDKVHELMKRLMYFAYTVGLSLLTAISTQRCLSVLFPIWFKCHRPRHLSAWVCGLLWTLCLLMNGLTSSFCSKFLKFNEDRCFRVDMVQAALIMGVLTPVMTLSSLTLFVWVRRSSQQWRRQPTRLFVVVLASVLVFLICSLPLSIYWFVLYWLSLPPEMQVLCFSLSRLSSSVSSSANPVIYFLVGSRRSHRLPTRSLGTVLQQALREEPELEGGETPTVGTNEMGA

| Structure (SMILES) | IC50 |
| --- | --- |
| Cc1cc(NC(=O)c2nnn(-c3ccc(-c4ccc(C(F)F)nc4)cc3)c2C2CC2)ccn1 [Compound 15-20] | 100 to 500 nM |
| COCc1ccc(-c2ccc(-n3nnc(C(=O)Nc4ccnc(C)c4)c3C3CC3)cc2)cn1 [Compound 15-21] | 500 to 1000 nM |
| Cc1ccc(CNC(=O)c2nnn(-c3ccc(-c4c(C)nn(-c5ccccc5)c4C)cc3)c2C2CC2)cn1 [Compound 15-22] | < 100 nM |
| CCc1ccc(-c2ccc(-n3nnc(C(=O)Nc4ccnc(C)c4)c3C3CC3)cc2)cn1 [Compound 15-23] | 100 to 500 nM |
| Cc1cc(NC(=O)c2nnn(-c3ccc(-c4ccc(CC#N)nc4)cc3)c2C2CC2)ccn1 [Compound 15-24] | 100 to 500 nM |
| Cc1ncccc1CNC(=O)c1nnn(-c2ccc(-c3ccc(C#N)c(F)c3)cc2)c1C1CC1 [Compound 16-1, 1-(4′-cyano-3′-fluoro-[1,1′-biphenyl]-4-yl)-5-cyclopropyl-N-((2-methylpyridin-3-yl)methyl)-1H-1,2,3-triazole-4-carboxamide] | < 100 nM |
| Cc1ncccc1CNC(=O)c1nnn(-c2ccc(-c3ccc(CC#N)cc3)cc2)c1C1CC1 [Compound 16-2] | 100 to 500 nM |
| Cc1ncccc1CNC(=O)c1nnn(-c2ccc(-c3cccc(CC#N)c3)cc2)c1C1CC1 [Compound 16-3] | 100 to 500 nM |
| CCn1cc(CNC(=O)c2nnn(-c3ccc(-c4ccc(C#N)c(F)c4)cc3)c2C2CC2)cn1 [Compound 16-4] | 100 to 500 nM |
| CCn1cc(CNC(=O)c2nnn(-c3ccc(-c4cccc(CC#N)c4)cc3)c2C2CC2)cn1 [Compound 16-5] | 100 to 500 nM |
| Cc1ccc(CNC(=O)c2nnn(-c3ccc(-c4c(C)nn5ccccc45)cc3)c2C2CC2)cn1 [Compound 17-1] | 100 to 500 nM |
| Cc1cc(NC(=O)c2nnn(-c3ccc(-c4ccc(F)nc4)cc3)c2C2CC2)ccn1 [Compound 17-2] | 100 to 500 nM |
| Cc1ccc(CNC(=O)c2nnn(-c3ccc(-c4ccc(C#N)c(F)c4)cc3)c2C2CC2)cn1 [Compound 17-3, 1-(4′-cyano-3′-fluoro-[1,1′-biphenyl]-4-yl)-5-cyclopropyl-N-((6-methylpyridin-3-yl)methyl)-1H-1,2,3-triazole-4-carboxamide] | 100 to 500 nM |
| CCn1cc(CNC(=O)c2nnn(-c3ccc(-c4ccc(C#N)cc4)cc3)c2C2CC2)cn1 [Compound 17-4] | 100 to 500 nM |
| CCn1cc(CNC(=O)c2nnn(-c3ccc(-c4ccc(CC#N)cc4)cc3)c2C2CC2)cn1 [Compound 17-5] | 100 to 500 nM |
| COc1ccc(C2(NC(=O)c3nnn(-c4ccc(-c5ccc(C#N)cc5)cc4)c3C3CC3)CC2)cn1 [Compound 17-6] | 100 to 500 nM |
| CCn1cc(CNC(=O)c2nnn(-c3ccc(-c4ccc(F)cc4)cc3)c2C2CC2)cn1 [Compound 17-7] | 1000 to 3000 nM |
| CCn1cc(CNC(=O)c2nnn(-c3ccc(-c4ccc(C(N)=O)cc4)cc3)c2C2CC2)cn1 [Compound 17-8] | 1000 to 3000 nM |
| Cc1ccc(-c2ccc(-n3nnc(C(=O)Nc4ccnc(C)c4)c3C3CC3)cc2)cn1 [Compound 17-9] | 100 to 500 nM |
| Cc1nn(C)c(C)c1-c1ccc(-n2nnc(C(=O)Nc3ccncc3)c2C(C)C)cc1 [Compound 17-10] | < 100 nM |
| CCn1cc(CNC(=O)c2nnn(-c3ccc(-c4c(C)nn(C)c4C)cc3)c2C(C)C)cn1 [Compound 17-11] | < 100 nM |
| COc1cc(-c2ccc(C#N)cc2)ccc1-n1nnc(C(=O)Nc2ccnc(C)c2)c1C(C)C [Compound 17-12] | 100 to 500 nM |

| Structure (SMILES) | IC50 |
| --- | --- |
| CCn1cc(CNC(=O)c2nnn(-c3ccc(-c4ccccc4)cc3)c2C(C)C)cn1 [Compound 17-13] | 100 to 500 nM |
| Cc1cc(NC(=O)c2nnn(-c3ccc(-c4ccc(C#N)cc4)cc3F)c2C(C)C)ccn1 [Compound 17-14] | 100 to 500 nM |
| Cc1cc(NC(=O)c2nnn(-c3ccc(-c4ccc(C#N)cc4)cn3)c2C(C)C)ccn1 [Compound 17-15] | 100 to 500 nM |
| Cc1nn(C)c(C)c1-c1ccc(-n2nnc(C(=O)Nc3ccccc3)c2C(C)C)cc1 [Compound 17-16] | 100 to 500 nM |
| CCn1cc(CNC(=O)c2nnn(-c3ccc(-c4ccc(C#N)cc4)cc3)c2C(C)C)cn1 [Compound 17-17] | 100 to 500 nM |
| Cc1nn(C)c(C)c1-c1ccc(-n2nnc(C(=O)Nc3cccc(C#N)c3)c2C(C)C)cc1 [Compound 17-18] | 100 to 500 nM |
| CCn1cc(CNC(=O)c2nnn(-c3ccc(-c4ccc(C#N)cc4)cc3F)c2C(C)C)cn1 [Compound 17-19] | 100 to 500 nM |
| CCn1cc(CNC(=O)c2nnn(-c3ccc(-c4ccc(C#N)cc4)cn3)c2C(C)C)cn1 [Compound 17-20] | 100 to 500 nM |
| CCn1cc(CNC(=O)c2nnn(-c3ccc(-c4ccc(C#N)cc4)cc3OC)c2C(C)C)cn1 [Compound 17-21] | 100 to 500 nM |
| Cc1nn(C)c(C)c1-c1ccc(-n2nnc(C(=O)NCc3cccnc3)c2C(C)C)cc1 [Compound 17-22] | 100 to 500 nM |
| CCn1cc(C2(NC(=O)c3nnn(-c4ccc(-c5ccc(C#N)c(F)c5)cc4)c3C(C)C)CC2)cn1 [Compound 17-23] | 100 to 500 nM |
| Cc1nn(C)c(C)c1-c1ccc(-n2nnc(C(=O)NC3C(C)(C)C3(C)C)c2C(C)C)cc1 [Compound 17-24] | 100 to 500 nM |
| Cc1nn(C)c(C)c1-c1ccc(-n2nnc(C(=O)Nc3ccccn3)c2C(C)C)cc1 [Compound 17-25] | 100 to 500 nM |
| CCn1cc(CNC(=O)c2nnn(-c3ccc(-c4ccc(C#N)cc4)cc3)c2C2CCC2)cn1 [Compound 17-26] | 500 to 1000 nM |
| CC(C)c1c(C(=O)Nc2ccncc2)nnn1-c1ccc(-c2cnn(C)c2)cc1 [Compound 17-27] | 500 to 1000 nM |
| Cc1cc(NC(=O)c2nnn(-c3ccc(-c4ccc(C#N)cc4)cc3)c2C(C)C)ccn1 [Compound 17-28] | 500 to 1000 nM |
| Cc1nn(C)c(C)c1-c1ccc(-n2nnc(C(=O)Nc3cccnc3)c2C(C)C)cc1 [Compound 17-29] | 500 to 1000 nM |
| CC(C)c1c(C(=O)Nc2cccc(C#N)c2)nnn1-c1ccc(-c2cnn(C)c2)cc1 [Compound 17-30] | 500 to 1000 nM |
| Cc1cc(NC(=O)c2nnn(-c3ccc(-c4ccccc4)cc3)c2C(C)C)ccn1 [Compound 17-31] | 1000 to 3000 nM |
| CC(C)c1c(C(=O)NC2(c3cccnc3)CC2)nnn1-c1ccc(-c2ccc(C#N)cc2)cc1 [Compound 17-32] | 1000 to 3000 nM |
| Cc1ccc(CNC(=O)c2nnn(-c3ccc(-c4ccc(C#N)nc4)cc3)c2C(C)C)cn1 [Compound 17-33] | 1000 to 3000 nM |
| Cc1nn(C)c(C)c1-c1ccc(-n2nnc(C(=O)NC3CC3)c2C(C)C)cc1 [Compound 17-34] | > 3000 nM |

Continued, values first:

| IC50 | Structure (SMILES) |
| --- | --- |
| 100 to 500 nM | N#Cc1ccc(-c2ccc(-n3nnc(C(=O)NC4(c5cncc(Cl)c5)CC4)c3C3CC3)cc2)cc1 [Compound 18-1] |
| 100 to 500 nM | CCc1ccc(C2(NC(=O)c3nnn(-c4ccc(-c5ccc(C#N)cc5)cc4)c3C3CC3)CC2)cn1 [Compound 18-2] |
| 500 to 1000 nM | N#Cc1ccc(-c2ccc(-n3nnc(C(=O)NC4(c5cccnc5)CC4)c3C3CC3)cc2)cc1 [Compound 18-3, 1-(4′-cyano-[1,1′-biphenyl]-4-yl)-5-cyclopropyl-N-(1-(pyridin-3-yl)cyclopropyl)-1H-1,2,3-triazole-4-carboxamide] |
| 1000 to 3000 nM | NC(=O)c1ccc(-c2ccc(-n3nnc(C(=O)NC4(c5cccnc5)CC4)c3C3CC3)cc2)cc1 [Compound 18-4] |
| 1000 to 3000 nM | Cc1cncc(C2(NC(=O)c3nnn(-c4ccc(-c5ccc(C#N)cc5)cc4)c3C3CC3)CC2)c1 [Compound 18-5] |
| 1000 to 3000 nM | COc1cncc(C2(NC(=O)c3nnn(-c4ccc(-c5ccc(C#N)cc5)cc4)c3C3CC3)CC2)c1 [Compound 18-6] |
| 1000 to 3000 nM | COc1ccc(C2(NC(=O)c3nnn(-c4ccc(-c5ccc(C(N)=O)cc5)cc4)c3C3CC3)CC2)cn1 [Compound 18-7] |
| 1000 to 3000 nM | N#Cc1ccc(-c2ccc(-n3nnc(C(=O)NC4(c5cccnc5)CC4)c3C3CC3)cc2)cn1 [Compound 18-8] |
| 1000 to 3000 nM | N#CCc1ccc(-c2ccc(-n3nnc(C(=O)NC4(c5cccnc5)CC4)c3C3CC3)cc2)cc1 [Compound 18-9] |
| 1000 to 3000 nM | NC(=O)c1ccc(-c2ccc(-n3nnc(C(=O)NC4(c5cccnc5)CC4)c3C3CC3)cc2)cn1 [Compound 18-10] |
| < 100 nM | Cc1nn(-c2ccccc2)c(C)c1-c1ccc(-n2nnc(C(=O)NC3(c4cccnc4)CC3)c2C2CC2)cc1 [Compound 18-11] |
| 1000 to 3000 nM | CCn1cc(C2(NC(=O)c3nnn(-c4ccc(-c5ccccc5)cc4)c3C3CC3)CC2)cn1 [Compound 18-12] |
| 100 to 500 nM | N#Cc1ccc(-c2ccc(-n3nnc(C(=O)NC4(c5cncc(Cl)c5)CC4)c3C3CC3)cc2)cc1F [Compound 18-13] |
| 100 to 500 nM | CCn1cc(C2(NC(=O)c3nnn(-c4ccc(-c5ccc(C#N)c(F)c5)cc4)c3C3CC3)CC2)cn1 [Compound 18-14] |
| 500 to 1000 nM | COc1cc(C#N)ccc1-c1ccc(-n2nnc(C(=O)NC3(c4cncc(Cl)c4)CC3)c2C2CC2)cc1 [Compound 18-15] |
| 500 to 1000 nM | Cc1cc(C#N)ccc1-c1ccc(-n2nnc(C(=O)NC3(c4cncc(Cl)c4)CC3)c2C2CC2)cc1 [Compound 18-16] |
| 1000 to 3000 nM | Cc1nn(C)c(C)c1-c1ccc(-n2nnc(C(=O)NC3(c4cccnc4)CC3)c2C2CC2)cc1 [Compound 18-17] |
| 1000 to 3000 nM | N#Cc1ccc(-c2ccc(-n3nnc(C(=O)NC4(c5cncc(F)c5)CC4)c3C3CC3)cc2)cc1 [Compound 18-18] |
| 1000 to 3000 nM | O=C(NC1(c2cncc(Cl)c2)CC1)c1nnn(-c2ccc(-c3cnn(Cc4ccccc4)c3)cc2)c1C1CC1 [Compound 18-19] |
| 100 to 500 nM | CC(=O)c1cccc(-c2cccc(-n3nnc(C(=O)NC4(c5cccnc5)CC4)c3C3CC3)c2)c1 [Compound 18-20] |
| 1000 to 3000 nM | N#CCc1ccc(-c2cccc(-n3nnc(C(=O)NC4(c5cccnc5)CC4)c3C3CC3)c2)cc1 [Compound 18-21] |
| > 3000 nM | CC(=O)c1cccc(-c2cccc(-n3nnc(C(=O)NC(C)c4nc5ccccc5n4C)c3C3CC3)c2)c1 (centres unmarked) [Compound 18-22] |
| 100 to 500 nM | Cc1nn(C)c(C)c1-c1ccc(-n2nnc(C(=O)NC3(c4cccnc4)CC3)c2C(C)C)cc1 [Compound 18-23] |
| 500 to 1000 nM | COc1ccc(C2(NC(=O)c3nnn(-c4ccc(-c5ccc(C#N)cc5)cc4)c3C(C)C)CC2)cn1 [Compound 18-24] |
